Assay results as given in patent publication US5302700A, “Radiohalogenation conjugate technology” (Duke University, priority 1988, dated 1994).

Tests used:
[1] = aqueous solution; background; cited from earlier work
[2] = Whole body clearance of INA and iodide (FIG. 1); assay type: in vivo, mice; conditions: vs iodide
Procedure: (§1) The method of choice for comparing the pharmacokinetics of two radioiodinated products (or two samples of the same compound, each sample radioiodinated using a different method) is to administer both to the same group of animals, labeling the first with ^125 I and the second with ^131 I. By performing "paired-label" experiments, one can correct for systematic errors such as incomplete thyroid sampling (less than 10 mg in a mouse) which could make […] comparisons difficult.
(§2) In the first paired-label study, groups of mice were injected with both [^131 ]iodide and 5-^125 I]iodonicotinic acid (hereinafter INA), the labeled substrate which is attached to proteins in the SPC procedure.
One approach for decreasing the retention of a nuclide in normal tissues following the administration of labeled antibodies is to couple the isotope in a chemical form which will be excreted rapidly after antibody catabolism. Degradation of antibodies labeled using the SPC method should result in the production of 5-iodonicotinic acid (INA).

[3] = Paired-label study: thyroid and stomach uptake of [125I]INA and [131I]iodide in mice; assay type: in vivo
Excerpt: When radioiodine is released from proteins following in vivo administration, loss of label occurs (dehalogenation). Since free iodide is taken up avidly by the thyroid and, at early time points, localizes in the stomach, uptake of radioiodine by these tissues is often used as an indicator of dehalogenation in vivo.
as §1, §2

[4] = background; cited from earlier work

Compound	hydrolysis of the active ester [1]	whole body clearance compared with iodide [2]	dehalogenation in vivo of INA template [3]	Stomach uptake ([3]; 1 hr after injection)	Thyroid uptake ([3]; 1 hr after injection)	Stomach uptake ([3]; 2 hr after injection)	Thyroid uptake ([3]; 2 hr after injection)	Stomach uptake ([3]; 4 hr after injection)	Thyroid uptake ([3]; 4 hr after injection)	Stomach uptake ([3]; 6 hr after injection)	Thyroid uptake ([3]; 6 hr after injection)	Stomach uptake ([3]; 24 hr after injection)	Thyroid uptake ([3]; 24 hr after injection)	thyroid uptake of 125I (INA), times lower than 131I (iodide) ([3]; thyroid, 125I vs 131I)	percentages of the injected dose localizing in thyroid and, at early time points, stomach, compared with iodide ([3]; vs iodide)	in vivo loss of radioiodine from the protein [4]
O=C(CCc1ccc(O)c([125I])c1)ON1C(=O)CCC1=O [Bolton-Hunter]	rapid hydrolysis of the active ester in aqueous solution															
O=C(O)c1cncc([125I])c1 [INA, 5-[^125 I]iodonicotinic acid]		considerably faster than iodide	relatively inert to dehalogenation in vivo	0.69 ± 0.40 percentages of the injected do	0.13 ± 0.13 percentages of the injected do	0.53 ± 0.41 percentages of the injected do	0.27 ± 0.09 percentages of the injected do	0.18 ± 0.03 percentages of the injected do	0.44 ± 0.21 percentages of the injected do	0.24 ± 0.10 percentages of the injected do	1.04 ± 0.24 percentages of the injected do	0.14 ± 0.01 percentages of the injected do	0.67 ± 0.19 percentages of the injected do	23-56 times lower	significantly lower than those observed with iodide	
I [Iodide, [^131 I]iodide, reference compound]				16.56 ± 8.10 percentages of the injected do	7.23 ± 1.27 percentages of the injected do	12.61 ± 7.33 percentages of the injected do	7.23 ± 1.39 percentages of the injected do	3.53 ± 0.74 percentages of the injected do	12.21 ± 3.27 percentages of the injected do	4.16 ± 1.82 percentages of the injected do	23.64 ± 4.95 percentages of the injected do	0.06 ± 0.02 percentages of the injected do	16.95 ± 4.98 percentages of the injected do			
COC(=N)c1cc(I)c(O)c(I)c1 [Woods]																in vivo loss of radioiodine from the protein
